Results as given in patent US20250288573A1 (H. LEE MOFFITT CANCER CENTER AND RESEARCH INSTITUTE, INC., priority 2018, published 2025).
Entries after “also recorded” stand apart in the source; their conditions may differ. Like-named read-outs stand apart in the source and are kept apart here. Each block holds one compound with its values, some of them ahead of it.

Columns and labels:
[1] = system: T cells expanded from patients with melanoma; test: Cytokine assays (IL-2, IFN-γ) in T cells expanded from patients with melanoma; assay type: cell-based, human
Description: Veh=vehicle-treated cells DMSO 0.1%

CRBN = target: T1, CRBN (Homo sapiens, UniProt Q96SW2); test: Western blot for expression of CRBN relative to vinculin in human T cells (CRBN degradation); assay type: cell-based; conditions: for remaining activity at 10 µM / remaining activity at 0.01 µM: read-out: Relative Density of CRBN (% of DMSO); for remaining activity at 0.01 µM: 24 h, 10nM
T1 construct: endogenous in cells; host or cells: primary human T cells / CD8+ T cells from peripheral blood
T1 sequence (Q96SW2 whole entry): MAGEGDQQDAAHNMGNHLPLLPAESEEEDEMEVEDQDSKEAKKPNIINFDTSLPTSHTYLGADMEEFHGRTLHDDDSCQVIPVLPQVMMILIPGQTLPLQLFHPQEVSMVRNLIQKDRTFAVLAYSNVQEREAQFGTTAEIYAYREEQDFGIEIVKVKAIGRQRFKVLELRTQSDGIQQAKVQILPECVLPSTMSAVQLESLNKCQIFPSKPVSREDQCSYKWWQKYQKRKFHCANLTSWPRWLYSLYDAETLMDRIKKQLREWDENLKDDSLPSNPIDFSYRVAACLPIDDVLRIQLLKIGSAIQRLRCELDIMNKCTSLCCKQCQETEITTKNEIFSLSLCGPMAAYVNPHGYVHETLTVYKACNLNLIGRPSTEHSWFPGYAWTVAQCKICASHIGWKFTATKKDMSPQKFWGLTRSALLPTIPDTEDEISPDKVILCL
Description: Bortez=bortezomib; MG132=proteasome inhibitor; MLN4924=NEDD8 inhibitor.
This assay is a standard Western blot assay for expression of CRBN relative to vinculin.
[…] 0.1 percent DMSO was used as a vehicle control.

Ikaros = target: T2, Ikaros (Homo sapiens, UniProt Q13422); test: Ikaros degradation in isolated human CD8+ T cells; assay type: cell-based; conditions: increasing doses
T2 construct: This molecule has a DC50 for Ikaros at 10 μM and for CRBN at <1 μM; endogenous in cells; host or cells: isolated human CD8+ T cells
T2 sequence (Q13422 whole entry): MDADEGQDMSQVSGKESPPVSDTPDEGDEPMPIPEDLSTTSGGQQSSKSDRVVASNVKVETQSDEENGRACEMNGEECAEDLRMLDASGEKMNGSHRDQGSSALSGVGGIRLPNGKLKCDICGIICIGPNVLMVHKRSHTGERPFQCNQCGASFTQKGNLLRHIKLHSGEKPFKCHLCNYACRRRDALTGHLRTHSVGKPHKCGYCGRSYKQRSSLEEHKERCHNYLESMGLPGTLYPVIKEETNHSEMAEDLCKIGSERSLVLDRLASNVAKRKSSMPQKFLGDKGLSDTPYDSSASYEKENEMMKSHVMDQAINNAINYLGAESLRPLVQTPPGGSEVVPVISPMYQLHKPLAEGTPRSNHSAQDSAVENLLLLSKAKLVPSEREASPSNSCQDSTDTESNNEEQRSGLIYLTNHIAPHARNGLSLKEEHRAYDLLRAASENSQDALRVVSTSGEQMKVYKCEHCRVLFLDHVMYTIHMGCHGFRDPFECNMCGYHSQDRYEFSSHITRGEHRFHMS
Experimental: Isolated human CD8+ T cells were treated with increasing doses of EC1-168. This molecule has a DC50 for Ikaros at 10 μM and for CRBN at <1 μM. Unique functional properties may be afforded to the CDM compounds via distinct protein recruitment.
Isolated human CD8+ T cells were treated with increasing doses of EC2-134. This molecule has a DC50 for Ikaros at 10 nM and for CRBN at 100 μM. Unique functional properties may be afforded to the CDM compounds via distinct protein recruitment.

[2] = system: CD25 (IL-2 receptor alpha); test: Expression of activation marker CD25 on activated human T cells; assay type: cell-based; conditions: 10 nM
Description: FIG. 23 is a graph showing human T cells activated with a series of immunomodulatory drugs lead to higher levels of expression of the activation marker CD25 (IL-2 receptor alpha) compared to unstimulated cells and control activated cells.

cereblon = target: T3, cereblon (Mus musculus, UniProt Q8C7D2); test: Western blot of cereblon in splenic T cells / splenocytes of mice treated orally with a single dose; assay type: in vivo; conditions: for cereblon levels in purified splenic T cells: single oral dose of 75 mg/kg
T3 construct: from tissue; host or cells: spleen: purified splenic T cells and total splenocytes of treated mice
T3 sequence (Q8C7D2 1-445): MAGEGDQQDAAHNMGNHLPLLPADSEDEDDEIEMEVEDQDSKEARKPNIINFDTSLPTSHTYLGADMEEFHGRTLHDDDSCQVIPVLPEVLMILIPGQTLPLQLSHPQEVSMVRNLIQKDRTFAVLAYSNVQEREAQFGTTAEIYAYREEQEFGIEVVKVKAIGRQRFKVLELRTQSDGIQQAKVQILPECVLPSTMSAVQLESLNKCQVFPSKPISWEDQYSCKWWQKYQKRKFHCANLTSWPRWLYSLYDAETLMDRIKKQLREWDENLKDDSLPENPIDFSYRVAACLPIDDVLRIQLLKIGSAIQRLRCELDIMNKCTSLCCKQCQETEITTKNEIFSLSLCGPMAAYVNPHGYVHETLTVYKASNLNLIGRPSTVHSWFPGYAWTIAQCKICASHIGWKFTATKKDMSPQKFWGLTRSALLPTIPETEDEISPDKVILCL
Experimental: FIG. 24 is a graph of results from Western blots from purified splenic T cells of mice treated orally with a single dose of 75 mg/kg SM2-145. Three mice were obtained from each time point (1, 6, 12, and 24 hrs) after treatment.
FIG. 25 contains a Western blot analysis of purified T cells from mice treated orally with a single dose of 75 mg/kg EC2-035 and EC2-134.

c-Myc = test: Western blot of c-Myc in activated human T cells; assay type: cell-based; conditions: human T cells activated by anti-CD3ε/anti-CD28
Description: (§1) On the right is a schematic diagram of CRBN/DDB1/CUL4A and ubiquitin degrading function. […] DMSO was used in these experiments as a vehicle control. […] CRBN is shown for human T cells and vinculin loading control of human and mouse T cells are provided. […] Results shown are representative of three independent experiments.

cereblon (CRBN) [3] = target: T4, cereblon (CRBN) (Homo sapiens, UniProt Q96SW2); test: Kd and % inhibition from FI; assay type: binding; conditions: for Kd: FI, read-out: Kd (FI) (converted); for inhibition at 200 µM: read-out: % inhibition @ 200 uM from *FI
T4 sequence (Q96SW2 whole entry, species assumed): as the sequence (Q96SW2 whole entry) above

cereblon (CRBN) [4] = target: T4, cereblon (CRBN); test: Kd from ITC; assay type: binding
cereblon (CRBN) [5] = target: T5, cereblon (CRBN) (Mus musculus, UniProt Q8C7D2); test: Western blot of cereblon (CRBN) levels in mouse CD8+ T cells; assay type: cell-based; conditions: 24 hours of treatment
T5 construct: endogenous in cells; host or cells: mouse CD8+ T cells
T5 sequence (Q8C7D2 1-445): T3 sequence (Q8C7D2 1-445)

Pharmacokinetic studies = conditions: in vivo
BRD4 = target: T6, BRD4 (Mus musculus, UniProt Q9ESU6); test: Western blot of BRD4 in activated mouse T cells; assay type: cell-based; conditions: for BRD4 expression / degradation: mouse T cells activated with anti-CD3ε/anti-CD28
T6 construct: endogenous in cells
Description: as §1

IL-2 [6] = test: IL-2 mRNA and protein secretion in anti-CD3 stimulated human T cells; assay type: cell-based; conditions: anti-CD3 stimulation without CD28 co-stimulation, relative to DMSO
Experimental: (§2) IL-2 mRNA (FIG. 8A) and protein secretion (FIG. 8B) were measured in cells and culture supernatant, respectively. […] Cytokine levels were determined by ELISA. […] Results are representative of three independent experiments. […] Statistical analysis was conducted ANOVA, followed by Dunnett's multiple comparison test. *=p<0.05, ***=p<0.001 FIGS. 9A-9C show the structure of cereblon is concerved across different species. […] FIG. 9C is an overlay of human and mouse cereblon (Val380 and Ile391 for mCRBN; Glu377 and Val388 for hCRBN), are demarcated as thin tubes.
Cereblon acts as the E3 ubiquitin ligase (UbL) substrate receptor component of the DNA damage binding protein 1 (DDB1), cullin-4 (CUL4A and B), and ROC1 complex ([…]). […] Blood Cancer J 5, e354, 2015). […] […]. […] Br. J. Haematol. […] Leukemia 26:1425-1429, 2012), which is the hallmark of the immunomodulatory drug class.

IL-2 [7] = test: IL-2 production in mouse T cells; assay type: cell-based; conditions: absence of CD28 co-stimulation
Experimental: as §2

IKZF1 = test: Western blot of IKZF1 (Ikaros) in T cells and multiple myeloma cells; assay type: cell-based
[8] = isolated human CD8+ T cells, increasing doses, read-out: DC50 for CRBN
[9] = single oral dose of 12.5, 25, and 75 mg/kg

Compound: Cc1nc2cccc(N)c2c(=O)n1C1CCC(=O)NC1=O (centres unmarked) [CC122, avadomide, reference compound]
- T cell function (IL-2 and IFN-γ after anti-CD3 (OKT3) activation) [1]: actively increasing T cell function

Compound: CS(=O)(=O)O.O=C1CC[C@H](N2Cc3c(OCc4ccc(CN5CCN(Cc6ccc(COc7cccc8c7CN([C@H]7CCC(=O)NC7=O)C8=O)cc6)CC5)cc4)cccc3C2=O)C(=O)N1 [EC1-168, (4-(4-(((2-((S)-2,6-dioxopiperidin-3-yl)-1-oxoisoindolin-4-yl)oxy)methyl)benzyl)-114-piperazin-1-yl)(4-(((2-((S)-2,6-dioxopiperidin-3-yl)-1-oxoisoindolin-4-yl)oxy)methyl)phenyl)methylium methyl sulfonate]
- DC50 (CRBN; [8]): < 1000 nM
- DC50 (Ikaros): 10 µM
- expression of the activation marker CD25 [2]: induces more immune potentiation

Compound: O=C1CCC(N2C(=O)c3cccc(NCc4ccc(CNc5cccc6c5C(=O)N(C5CCC(=O)NC5=O)C6=O)cc4)c3C2=O)C(=O)N1 (centres unmarked) [EC2-134]
- remaining activity at 10 µM (CRBN): 13.8%
- remaining activity at 0.01 µM (CRBN; human T cells, 24 hours): 4%
- DC50 (CRBN; [8]): 100000 nM
- DC50 (Ikaros): 0.01 µM
- cereblon levels in purified splenic T cells (cereblon): sustained reduction in cereblon levels at 6, 9 and 12 hours
- cereblon levels in purified T cells (cereblon; [9]): inverse dose dependent levels of cereblon
- cereblon levels in total splenocytes (cereblon; [9]): inverse dose dependent levels of cereblon
- cereblon levels in purified T cells at the lowest dose (cereblon; single oral dose, lowest dose (12.5 mg/kg), compared with Crbn-/- T cells): significantly reduced

Compound: Cc1sc2c(c1C)C(c1ccc(Cl)cc1)=N[C@@H](CC(=O)OC(C)(C)C)c1nnc(C)n1-2 [JQ1]
- c-Myc suppression (c-Myc): Suppression of c-Myc is evident

Compound: O=C1CCC(N2Cc3c(CCCOCCOCCCc4cccc5c4CN(C4CCC(=O)NC4=O)C5=O)cccc3C2=O)C(=O)N1 (centres unmarked) [SM2-145, 3,3′-(((Ethane-1,2-diylbis(oxy))bis(propane-3,1-diyl))bis(1-oxoisoindoline-4,2-diyl))bis(piperidine-2,6-dione)]
- remaining activity at 10 µM (CRBN): 7.21%
- remaining activity at 0.01 µM (CRBN; human T cells, 24 hours): 21%
- specificity for CRBN degradation over Ikaros (CRBN; human T cells, 24 hours): Specificity is shown for CRBN degradation over Ikaros
- intracellular cereblon levels (Western blot) (CRBN; human T cells, 24 hours of treatment): reduced intracellular cereblon levels
- DC50 (CRBN; human T cells, 24 hours, read-out: DC50 (concentration leading to 50% degradation of cereblon)): 2.88 nM
- Kd (cereblon (CRBN) [3]): 6.59 ± 1.57 µM
- inhibition at 200 µM (cereblon (CRBN) [3]): 70.19 ± 0.28%
- Kd (cereblon (CRBN) [4]): 6.6 ± 0.8 µM
- cereblon (CRBN) levels (Western blot) (cereblon (CRBN) [5]): reduced cereblon (CRBN) levels
- cereblon levels in purified splenic T cells (cereblon): partial reduction in cereblon levels at 6 hours
- stability in pharmacokinetic studies (Pharmacokinetic studies): Poor stability
- T cell function (IL-2 and IFN-γ after anti-CD3 (OKT3) activation) [1]: actively increasing T cell function

Compound: Cc1sc2c(c1C)C(c1ccc(Cl)cc1)=N[C@@H](CC(=O)NCCCCNC(=O)COc1cccc3c1C(=O)N(C1CCC(=O)NC1=O)C3=O)c1nnc(C)n1-2 (some centres unmarked) [dBET1]
- c-Myc suppression (c-Myc): Suppression of c-Myc is evident
- BRD4 expression / degradation (BRD4): degrades BRD4

Compound: Nc1cccc2c1C(=O)N(C1CCC(=O)NC1=O)C2=O (centres unmarked) [pomolidomide]
- IKZF1 expression (IKZF1): decreased
- BRD4 expression / degradation (BRD4): failed to reduce BRD4 expression
- effect on dBET1-induced BRD4 degradation (BRD4; mouse T cells, Pom 0.5 μM with dBET1): reversed the degradation observed through dBET1

Continued, in another order:

- remaining activity at 10 µM (CRBN): 15.8%
- remaining activity at 0.01 µM (CRBN; human T cells, 24 hours): 99.5%
- CRBN expression (Western blot) (CRBN; anti-CD3/anti-CD28 stimulated human T cells, 0.1, 1, and 10 μM): significant reduction in CRBN expression
- Kd (cereblon (CRBN) [3]): 11.3 µM
- inhibition at 200 µM (cereblon (CRBN) [3]): 68.2 ± 3.33%
- Kd (cereblon (CRBN) [4]): 12.3 ± 0.4 µM
Compound: O=C(COc1cccc2c1C(=O)N(C1CCC(=O)NC1=O)C2=O)NCCOCCOCCNC(=O)COc1cccc2c1C(=O)N(C1CCC(=O)NC1=O)C2=O (centres unmarked) [SM2-048]

- remaining activity at 10 µM (CRBN): 3.05%
- remaining activity at 0.01 µM (CRBN; human T cells, 24 hours): 24.1%
- Kd (cereblon (CRBN) [3]): 5.88 µM
- inhibition at 200 µM (cereblon (CRBN) [3]): 73.9 ± 14.9%
- Kd (cereblon (CRBN) [4]): 4.4 ± 1.4 µM
Compound: O=C1CCC(N2Cc3c(CCCOCCCc4cccc5c4CN(C4CCC(=O)NC4=O)C5=O)cccc3C2=O)C(=O)N1 (centres unmarked) [SM2-144, 3,3′-((Oxybis(propane-3,1-diyl))bis(1-oxoisoindoline-4,2-diyl))bis(piperidine-2,6-dione)]

- cereblon (CRBN) levels (Western blot) (cereblon (CRBN) [5]): not
Compound: Nc1cccc2c1CN(C1CCC(=O)NC1=O)C2=O (centres unmarked) [lenalidomide, Lenalidomide]
- IL-2 production (mRNA and protein secretion) (IL-2 [6]): significantly increased; also recorded: augments IL-2 production
- IL-2 production (IL-2 [7]): not
